Reference: patent US20240391955A1, “PEPTIDE HAVING ANTI-AGING ACTIVITY, AND USE THEREOF” (CAREGEN CO., LTD., priority 2021, published 2024)

Legend:
elastin gene = experiment: Elastin gene expression by RT-PCR in fibroblasts; assay type: cell-based, mouse; conditions: NIH3T3 cells, peptide 10, 50, 100 μM, 24 hours, FIG. 1
Procedure: (§1) First, NIH3T3 cells (mouse fibroblast cell line) were seeded in a 6-well plate at a cell density of 3×10^5 cell/well, and then the cells were cultured in DMEM medium containing 10% fetal bovine serum (FBS) for 24 hours. The cultured cells were washed once with serum free DMEM medium, and the peptide of the present invention was mixed in 1 mL of the serum free DMEM medium at each of concentrations of 10, 50, and 100 μM, and dispensed into the cells. A positive control (PC) was treated with 5 ng/ml of TGF-β1 instead of the above peptide. The cells were cultured in a CO2 incubator at 37° C. for 24 hours.
(§2) The cultured cells were washed twice with PBS, and RNA was extracted from the cells using easy blue (iNtRON, Cat. No.: 17061, Korea). The amount of RNA extracted was quantified, 1,000 ng of RNA was added per tube, and RT reaction was performed using a kit (enzynomics, Cat. No.: […], Korea). RT-PCR was performed using a PCR kit (enzynomics, Cat. No.: […], Korea). The sequences of the primers of fibronectin and elastin used in RT-PCR and the sequence of the primer of GAPDH used to compare the total RNA amount of each treatment group are shown in [Table 2].

fibronectin = experiment: Fibronectin mRNA level after UVA irradiation, RT-PCR; assay type: cell-based, mouse; conditions: NIH3T3 cells, peptide 10, 50, 100 μM, 6 J/cm^2 UVA, FIG. 5
Procedure: (§3) First, NIH3T3 cells were seeded in a 6-well plate at a cell density of 5×10^5 cell/well, and then the cells were cultured in DMEM medium containing 10% fetal bovine serum (FBS) for 24 hours. The cultured cells were washed once with serum free DMEM medium, and then the peptide of the present invention was mixed in 1 mL of the serum free DMEM medium at each of concentrations of 10, 50, and 100 μM, and dispensed into the cells. A positive control (PC) was treated with 50 μM of Quercetin instead of the above peptide. The cells were cultured in a CO2 incubator at 37° C. for 6 hours.
(§4) The medium of the cultured cells was transferred to a tube (e-tube), 1 ml of PBS was added, and irradiation was performed with 6 J/cm^2 of UVA using a UV irradiator (VILBER LOURMAT, Cat No.: 3102-BSU, France). After removing PBS, 900 μL of the medium transferred to the tube was dispensed, and culture was performed in a CO2 incubator at 37° C. for 6 hours. The cultured cells were washed twice with PBS, and then RNA was extracted from the cells using easy blue (iNtRON, Cat. No.: 17061, Korea). The amount of RNA extracted was quantified, 1,000 ng of RNA was added per tube, and RT reaction was performed using a kit (enzynomics, Cat. No.: RT200, Korea) Thereafter, RT-PCR was performed using a PCR kit (enzynomics, Cat. No.: R581T, Korea). […]

Colla1 = Colla1 mRNA level after UVA irradiation, RT-PCR; assay type: cell-based, mouse; conditions: NIH3T3 cells, peptide 10, 50, 100 μM, 6 J/cm^2 UVA, FIG. 5
Procedure: as §3, §4

MMP-2 = MMP-2 activity after UVA irradiation, gelatin zymography; assay type: cell-based, mouse; conditions: NIH3T3 cells, culture medium, peptide 10, 50, 100 μM, 6 J/cm^2 UVA, FIG. 6
MMP-1 [1] = experiment: MMP-1 protein after heat treatment, western blot; assay type: cell-based, mouse; conditions: NIH3T3 cells, peptide 10, 50, 100 μM, 44° C. for 40 minutes, FIG. 7
Procedure: (§5) First, NIH3T3 cells were seeded in a 6-well plate at a cell density of 5×10^5 cell/well, and then the cells were cultured in DMEM medium containing 10% fetal bovine serum (FBS) for 24 hours. The cultured cells were washed once with serum free DMEM medium, and the peptide of the present invention was mixed in 1 mL of the serum free DMEM medium at each of concentrations of 10, 50, and 100 μM, and dispensed into the cells. A positive control (PC) was treated with 2.5 mM of N-acetylcysteine (NaC) instead of the above peptide.
The cells were cultured in a CO2 incubator at 37° C. for 24 hours. A lid and a lower plate of the 6-well plate were sealed with a paraffin film for heat treatment, the lower plate was immersed in a water bath at 44° C., and culture was performed for 40 minutes. After removing the medium, 1 mL of serum free DMEM medium was added, and culture was performed in a CO2 incubator at 37° C. for 8 hours. Thereafter, the cells were washed twice with PBS, and then a cell lysis buffer was added to obtain a lysate.
A sample was prepared by treating the cells with 5× sample buffer, and then SDS-PAGE was performed using 10% SDS-PAGE gel. The proteins isolated through SDS-PAGE were transferred to a PVDF membrane, and blocking was performed at room temperature for 1 hour using 5% skin milk. […]

[2] = test system: intracellular reactive oxygen species in NIH3T3 cells; experiment: Intracellular ROS level after UVA irradiation (DCFH-DA, FACS); assay type: cell-based, mouse; conditions: peptide 10, 50, 100 μM, 8 J/cm^2 UVA, 24 hours after irradiation, FIG. 4
Procedure: as §5, with “medium, and then the peptide” for “medium, and the peptide”, “treated with 7.5 mM of” for “treated with 2.5 mM of”
The cells were cultured in a CO2 incubator at 37° C. for 1 hour. The medium of the cultured cells was transferred to a tube, 1 ml of PBS was added, and irradiation was performed with 8 J/cm^2 of UVA using a UV irradiator (VILBER LOURMAT, Cat No.: 3102-BSU, France). After removing PBS, 900 μL of the medium transferred to the tube was dispensed, and culture was performed in a CO2 incubator at 37° C. for 24 hours. After treatment with 10 μM of dichloro-dihydro-fluorescein diacetate (DCFH-DA), wrapping with a foil was performed, and culture was performed in a CO2 incubator at 37° C. for 30 minutes. The cells were washed twice with PBS, and 500 μL of 1XTE was dispensed to isolate the cells. After centrifugation, the cells were washed with PBS, and a fluorescence value was measured through FACS.

elastin = experiment: Elastin mRNA level after UVA irradiation, RT-PCR; assay type: cell-based, mouse; conditions: NIH3T3 cells, peptide 10, 50, 100 μM, 6 J/cm^2 UVA, FIG. 5
Procedure: as §3, §4

AQP3 = AQP3 mRNA level by RT-PCR in HaCaT keratinocytes; assay type: cell-based, human; conditions: HaCaT cells, peptide 10, 50, 100 μM, 24 hours, FIG. 3
Procedure: (§6) First, HaCaT cells were seeded in a 6-well plate at a cell density of 3×10^5 cell/well, and then the cells were cultured in DMEM medium containing 10% fetal bovine serum (FBS) for 24 hours. The cultured cells were washed once with serum free DMEM medium, and then the peptide of the present invention was mixed in 1 mL of the serum free DMEM medium at each of concentrations of 10, 50, and 100 μM, and dispensed into the cells. A positive control (PC) was treated with 100 nM of EGF instead of the above peptide. The cells were cultured in a CO2 incubator at 37° C. for 24 hours.
(§7) The cultured cells were washed twice with PBS, and then RNA was extracted from the cells using easy blue (iNtRON, Cat. No.: 17061, Korea). The extracted RNA was subjected to RT reaction using a kit (enzynomics, Cat. No.: RT200, Korea). Thereafter, RT-PCR was performed using a PCR kit (enzynomics, Cat. No.: R581T, Korea). The sequences of the primers of SIRT1 and AQP3 used in RT-PCR and the sequence of the primer of GAPDH used to compare the total RNA amount of each treatment group are shown in [Table 2].

MMP-1 [3] = experiment: MMP-1 expression after UVA irradiation, western blot; assay type: cell-based, mouse; conditions: NIH3T3 cells, peptide 10, 50, 100 μM, 6 J/cm^2 UVA, FIG. 6
Procedure: as §5
The cells were cultured in a CO2 incubator at 37° C. for 1 hour. The medium of the cultured cells was transferred to a tube (e-tube), 1 ml of PBS was added, and irradiation was performed with 6 J/cm^2 of UVA using a UV irradiator (VILBER LOURMAT, Cat No.: 3102-BSU, France). After removing PBS, 900 μL of the medium transferred to the tube was added, and culture was performed in a CO2 incubator at 37° C. for 6 hours. The medium of the cultured cells was transferred to a tube, the cells were washed twice with PBS, and then a cell lysis buffer was added to lyse the cells. A sample was prepared by treating the cells with 5× sample buffer, and then SDS-PAGE was performed using 10% SDS-PAGE gel. The proteins isolated through SDS-PAGE were transferred to a PVDF membrane. Blocking was performed at room temperature for 1 hour using 5% skim milk. […]

collagen = experiment: Collagen protein secretion by ELISA in NIH3T3 fibroblasts; assay type: cell-based, mouse; conditions: peptide 10, 50, 100 μM, 72 hours, FIG. 2
Procedure: (§8) First, NIH3T3 cells and HaCaT cells (human keratinocyte cell line) were seeded in a 24-well plate at a cell density of 1×10^4 cell/well, and then the cells were cultured in DMEM medium containing 10% fetal bovine serum (FBS) for 24 hours. The cultured cells were washed once with serum free DMEM medium, and the peptide of the present invention was mixed in 2 mL of the serum free DMEM medium at each of concentrations of 10 μM, 50 μM, 100 μM, and 5 ng/ml, and dispensed into three wells by 500 μL per condition. NIH3T3 cells were treated with 5 ng/ml of TGF-β1 instead of the above peptide as a positive control (PC). HaCaT cells were treated with 10 nM of IGF-1 instead of the above peptide as a positive control (PC). The cells were cultured in a CO2 incubator at 37° C. for 72 hours.
(§9) The medium of the cultured NIH3T3 and HaCaT cells was centrifuged to settle a suspended matter, a supernatant was transferred to an e-tube, and then each of ELISA (abcam, Cat No.: ab210579, UK) and hyaluronic acid (HA) ELISA (ECHELON biosciences, Cat No.: K-1200, USA) was performed using the same.

hyaluronic acid = experiment: Hyaluronic acid secretion by HA ELISA in HaCaT keratinocytes; assay type: cell-based, human; conditions: peptide 10, 50, 100 μM, 72 hours, FIG. 2
Procedure: as §8, §9

SIRT1 = SIRT1 mRNA level by RT-PCR in HaCaT keratinocytes; assay type: cell-based, human; conditions: HaCaT cells, peptide 10, 50, 100 μM, 24 hours, FIG. 3
Procedure: as §6, §7

fibronectin gene = experiment: Fibronectin gene expression by RT-PCR in fibroblasts; assay type: cell-based, mouse; conditions: NIH3T3 cells, peptide 10, 50, 100 μM, 24 hours, FIG. 1
Procedure: as §1, §2

KRRRKRK [SEQ ID NO: 1]
expression of elastin gene (elastin gene): gradually increased as the concentration of the peptide increased
mRNA level of fibronectin decreased by UV irradiation (fibronectin): increased again
mRNA level of Colla1 decreased by UV irradiation (Colla1): increased again
activity of MMP-2 increased by UV irradiation (MMP-2): inhibited
amount of secretion of MMP-1 protein whose expression was increased by heat treatment (MMP-1 [1]): decreased
intracellular reactive oxygen species level increased by UV irradiation [2]: decreased
mRNA level of elastin decreased by UV irradiation (elastin): increased again
mRNA level of AQP3 (AQP3): increased
expression of MMP-1 increased by UV irradiation (MMP-1 [3]): inhibited
protein secretion of collagen (collagen): gradually increased as the concentration of the peptide increased
protein secretion of hyaluronic acid (hyaluronic acid): gradually increased as the concentration of the peptide increased
mRNA level of SIRT1 (SIRT1): increased
expression of fibronectin gene (fibronectin gene): gradually increased as the concentration of the peptide increased
